Earlier results, collected in patent US4215038A, “Peptides which inhibit gonadal function” (The Salk Institute for Biological Studies, priority 1978, dated 1980).
Non-standard residues stand in square brackets, D forms with d. pGlu = O=C1CC[C@@H](C(=O)O)N1

Test system: release of gonadotropins
Conditions: compared with the 6-Gly peptide

## [pGlu]WSY[dA]LRPG-NH2
  potency as an inhibitor for the release of gonadotropins relative to the same peptide with Gly in the 6-position: 3 times
